{"source": "patent US6403639B1", "about": "“2,3-dihydrobenzofuran derivatives” (Chugai Seiyaku Kabushiki Kaisha, priority 1997, dated 2002)", "key": {"[1]": {"test_system": "porcine kidney-derived LLC-PK1 cells", "assay": "Protective effect against cell injury of porcine kidney-derived LLC-PK1 cells (2), oxidized LDL-induced LDH leakage", "type": "cell-based", "experimental": "The oxidized LDL was prepared by placing 1 mg/ml of rabbit LDL in PBS (−) in the presence of 10 μM CuSO4 at 37° C. for 24 hours. Cell cultures were prepared by inoculating 1.25×10^4 cells/250 μl/well on a 48-well plate using M199 medium containing 3% FBS. Test compounds were dissolved or suspended in ethanol and added at a ratio of 1.25 μl/well 16 hours before or immediately before addition of the oxidized LDL to a concentration of 0.1, 1 or 10 μM in each well. The oxidized LDL was diluted twice with physiological saline and then added to cells at 62.5 μl/well to a concentration of 100 μg/ml and the cells were incubated for 6 hours after addition of the oxidized LDL. After the incubation, 162.5 μl of the culture medium was collected from each of the wells and measured for the lactate dehydrogenase (LDH) activity (Lactate Dehydrogenase (LD-L): SIGNA DIAGNOSTICS) which has leaked into the culture medium.\n(§1) The cytoprotective effect was expressed as a % cytoprotection where the effect in wells containing the oxidized LDL but without any test compound is 0% and the effect in wells containing physiological saline in place of the oxidized LDL is 100%.\nFor the purpose of evaluating in vitro cytoprotective effect of the compounds of the present invention, protective effect against cell injury of porcine kidney-derived LLC-PK1 cells (ATCC-CRL-13921) induced by oxidized low-density lipoprotein (oxidized LDL) was examined in the same manner as in Test example 1.\nPreparation of oxidized LDL and conditions for cell culture and addition of test compounds were the same as those in Test example 1, except that the oxidized LDL was not diluted with physiological saline and added to cells at 25 μl/well to a concentration of 91 μg/ml and the cells were incubated for 6 hours after addition of oxidized LDL. After the incubation, 150 μl of the culture medium was collected from each of the wells and measured for the lactate dehydrogenase (LDH) activity (Lactate Dehydrogenase (LD-L): SIGMA DIAGNOSTICS) which has leaked in the culture medium."}, "cultured mesangial cells": {"test_system": "cultured mesangial cells", "assay": "Protective effect against cell injury of cultured mesangial cells, oxidized LDL-induced LDH leakage", "type": "cell-based, rats", "experimental": "For the purpose of evaluating in vitro cytoprotective effect of the compounds of the present invention, protective effect against cell injury of cultured mesangial cells induced by oxidized low-density lipoprotein (LDL) was examined. The cells used were subcultures after 4 to 6 passages of the primary cultures of mesangial cells prepared from kidney of 4-week-old SD-strain male rats (Nippon Charles River Corp.).\nThe oxidized LDL was prepared by placing 1 mg/ml of rabbit LDL in PBS (−) in the presence of 10 μM CuSO4 at 37° C. for 24 hours. Cell cultures were prepared by inoculating 2.5×10^4 cells/250 μl/well on a 48-well plate using RPMI1640 medium containing 20% FBS. Immediately before addition of test compounds, the medium was replaced with RPMI1640 free from FBS. Test compounds were dissolved or suspended in ethanol and added at 1.25 μl/well 16 hours before or immediately before addition of the oxidized LDL to a concentration of 1, 3 or 10 μM in each well. Unlike Test example 1, the oxidized LDL was not diluted with physiological saline and added to cells at 25 μl/well to a concentration of 91 μg/ml and the cells were incubated for 8 hours after addition of the oxidized LDL. After the incubation, 150 μl of the culture medium was collected from each of the wells and measured for the lactate dehydrogenase activity (Lactate Dehydrogenase (LD-L): SIGMA DIAGNOSTICS) which has leaked in the culture medium.\nas §1"}, "[2]": {"details": "Sus scrofa, LLC-PK1; 0.1 μM; test compounds added 16 hours before addition of oxidized LDL; oxidized LDL 91 μg/ml, 6 hours; read-out: % cytoprotection 1)"}, "[3]": {"details": "Sus scrofa, LLC-PK1; 0.1 μM; test compounds added immediately before addition of oxidized LDL; oxidized LDL 91 μg/ml, 6 hours; read-out: % cytoprotection 2)"}, "[4]": {"details": "Sus scrofa, LLC-PK1; 1 μM; test compounds added 16 hours before addition of oxidized LDL; oxidized LDL 91 μg/ml, 6 hours; read-out: % cytoprotection 1)"}, "[5]": {"details": "Sus scrofa, LLC-PK1; 1 μM; test compounds added immediately before addition of oxidized LDL; oxidized LDL 91 μg/ml, 6 hours; read-out: % cytoprotection 2)"}, "[6]": {"details": "Sus scrofa, LLC-PK1; 10 μM; test compounds added 16 hours before addition of oxidized LDL; oxidized LDL 91 μg/ml, 6 hours; read-out: % cytoprotection 1)"}, "[7]": {"details": "Sus scrofa, LLC-PK1; 10 μM; test compounds added immediately before addition of oxidized LDL; oxidized LDL 91 μg/ml, 6 hours; read-out: % cytoprotection 2)"}, "[8]": {"details": "Rattus norvegicus, Mesangial cell; 1 μM; test compounds added 16 hours before addition of oxidized LDL; oxidized LDL 91 μg/ml, 8 hours; read-out: % cytoprotection 1)"}, "[9]": {"details": "Rattus norvegicus, Mesangial cell; 1 μM; test compounds added immediately before addition of oxidized LDL; oxidized LDL 91 μg/ml, 8 hours; read-out: % cytoprotection 2)"}, "[10]": {"details": "Rattus norvegicus, Mesangial cell; 3 μM; test compounds added 16 hours before addition of oxidized LDL; oxidized LDL 91 μg/ml, 8 hours; read-out: % cytoprotection 1)"}, "[11]": {"details": "Rattus norvegicus, Mesangial cell; 3 μM; test compounds added immediately before addition of oxidized LDL; oxidized LDL 91 μg/ml, 8 hours; read-out: % cytoprotection 2)"}}, "note": "Read-outs that look alike come from different tables or passages of the source."}
{"smiles": "CCc1c(O)c(C(C)(C)C)cc2c1CC1(CCCCCC1)O2", "note": "[Example 14-(2), 6-t-Butyl-4-ethyl-5-hydroxy-2,3-dihydrobenzofuran-2-spiro-1′-cycloheptane]", "values": [{"measurement": "inhibition at 0.1 µM", "setting": "[1]; [2]", "value": -14.3, "unit": "%"}, {"measurement": "inhibition at 0.1 µM", "setting": "[1]; [3]", "value": -13.9, "unit": "%"}, {"measurement": "inhibition at 1 µM", "setting": "[1]; [4]", "value": 103, "unit": "%"}, {"measurement": "inhibition at 1 µM", "setting": "[1]; [5]", "value": 99.4, "unit": "%"}, {"measurement": "inhibition at 10 µM", "setting": "[1]; [6]", "value": 104, "unit": "%"}, {"measurement": "inhibition at 10 µM", "setting": "[1]; [7]", "value": 105, "unit": "%"}, {"measurement": "inhibition at 1 µM", "setting": "cultured mesangial cells; [8]", "value": "6.6 ± 8.4", "unit": "%"}, {"measurement": "inhibition at 1 µM", "setting": "cultured mesangial cells; [9]", "value": "23.1 ± 1.2", "unit": "%"}, {"measurement": "inhibition at 3 µM", "setting": "cultured mesangial cells; [10]", "value": "52.7 ± 14.3", "unit": "%"}, {"measurement": "inhibition at 3 µM", "setting": "cultured mesangial cells; [11]", "value": "45.6 ± 1.8", "unit": "%"}]}
{"smiles": "CC(C)(C)c1cc2c(cc1O)CCO2", "note": "[Example 15, 6-t-Butyl-5-hydroxy-2,3-dihydrobenzofuran]", "values": [{"measurement": "inhibition at 1 µM", "setting": "cultured mesangial cells; [8]", "value": "-4 ± 3.5", "unit": "%"}, {"measurement": "inhibition at 1 µM", "setting": "cultured mesangial cells; [9]", "value": "-14.6 ± 3.3", "unit": "%"}, {"measurement": "inhibition at 3 µM", "setting": "cultured mesangial cells; [10]", "value": "33.6 ± 11.5", "unit": "%"}, {"measurement": "inhibition at 3 µM", "setting": "cultured mesangial cells; [11]", "value": "5.4 ± 5.1", "unit": "%"}]}
{"smiles": "CC1Cc2cc(O)c(C(C)(C)C)cc2O1", "note": "(stereo not drawn) [Example 16, 6-t-Butyl-5-hydroxy-2-methyl-2,3-dihydrobenzofuran]", "values": [{"measurement": "inhibition at 0.1 µM", "setting": "[1]; [2]", "value": 12.7, "unit": "%"}, {"measurement": "inhibition at 0.1 µM", "setting": "[1]; [3]", "value": 7.6, "unit": "%"}, {"measurement": "inhibition at 1 µM", "setting": "[1]; [4]", "value": 99.7, "unit": "%"}, {"measurement": "inhibition at 1 µM", "setting": "[1]; [5]", "value": 90.8, "unit": "%"}, {"measurement": "inhibition at 10 µM", "setting": "[1]; [6]", "value": 103, "unit": "%"}, {"measurement": "inhibition at 10 µM", "setting": "[1]; [7]", "value": 103, "unit": "%"}, {"measurement": "inhibition at 1 µM", "setting": "cultured mesangial cells; [8]", "value": "50.6 ± 5.9", "unit": "%"}, {"measurement": "inhibition at 1 µM", "setting": "cultured mesangial cells; [9]", "value": "18.7 ± 1.3", "unit": "%"}, {"measurement": "inhibition at 3 µM", "setting": "cultured mesangial cells; [10]", "value": "45.3 ± 9.4", "unit": "%"}, {"measurement": "inhibition at 3 µM", "setting": "cultured mesangial cells; [11]", "value": "28.3 ± 6.2", "unit": "%"}]}
{"smiles": "CCC1(CC)Cc2c(cc(C(C)C)c(O)c2C(C)C)O1", "note": "[Example 17, 2,2-Diethyl-5-hydroxy-4,6-diisopropyl-2,3-dihydrobenzofuran]", "values": [{"measurement": "inhibition at 0.1 µM", "setting": "[1]; [2]", "value": 40.5, "unit": "%"}, {"measurement": "inhibition at 0.1 µM", "setting": "[1]; [3]", "value": 22.1, "unit": "%"}, {"measurement": "inhibition at 1 µM", "setting": "[1]; [4]", "value": 99.9, "unit": "%"}, {"measurement": "inhibition at 1 µM", "setting": "[1]; [5]", "value": 101, "unit": "%"}, {"measurement": "inhibition at 10 µM", "setting": "[1]; [6]", "value": 99.9, "unit": "%"}, {"measurement": "inhibition at 10 µM", "setting": "[1]; [7]", "value": 98.4, "unit": "%"}]}
{"smiles": "CC(C)c1cc2c(c(C(C)C)c1O)CC(C)(C)O2", "note": "[Example 18, 5-Hydroxy-2,2-dimethyl-4,6-diisopropyl-2,3-dihydrobenzofuran]", "values": [{"measurement": "inhibition at 0.1 µM", "setting": "[1]; [2]", "value": 12.1, "unit": "%"}, {"measurement": "inhibition at 0.1 µM", "setting": "[1]; [3]", "value": -1.9, "unit": "%"}, {"measurement": "inhibition at 1 µM", "setting": "[1]; [4]", "value": 100, "unit": "%"}, {"measurement": "inhibition at 1 µM", "setting": "[1]; [5]", "value": 99.7, "unit": "%"}, {"measurement": "inhibition at 10 µM", "setting": "[1]; [6]", "value": 100, "unit": "%"}, {"measurement": "inhibition at 10 µM", "setting": "[1]; [7]", "value": 101, "unit": "%"}]}
{"smiles": "Cc1c(O)c(C(C)(C)C)cc2c1CC(C)(C)O2", "note": "[Example 19, 6-t-Butyl-5-hydroxy-2,2,4-trimethyl-2,3-dihydrobenzofuran]", "values": [{"measurement": "inhibition at 0.1 µM", "setting": "[1]; [2]", "value": 31.1, "unit": "%"}, {"measurement": "inhibition at 0.1 µM", "setting": "[1]; [3]", "value": 13.2, "unit": "%"}, {"measurement": "inhibition at 1 µM", "setting": "[1]; [4]", "value": 104, "unit": "%"}, {"measurement": "inhibition at 1 µM", "setting": "[1]; [5]", "value": 102, "unit": "%"}, {"measurement": "inhibition at 10 µM", "setting": "[1]; [6]", "value": 102, "unit": "%"}, {"measurement": "inhibition at 10 µM", "setting": "[1]; [7]", "value": 102, "unit": "%"}]}
{"smiles": "CC(C)c1c(O)c(C(C)(C)C)cc2c1CC(C)(C)O2", "note": "[Example 20-(1), 6-t-Butyl-5-hydroxy-2,2-dimethyl-4-isopropyl-2,3-dihydrobenzofuran]", "values": [{"measurement": "inhibition at 0.1 µM", "setting": "[1]; [2]", "value": -4.8, "unit": "%"}, {"measurement": "inhibition at 0.1 µM", "setting": "[1]; [3]", "value": -24, "unit": "%"}, {"measurement": "inhibition at 1 µM", "setting": "[1]; [4]", "value": 100, "unit": "%"}, {"measurement": "inhibition at 1 µM", "setting": "[1]; [5]", "value": 100, "unit": "%"}, {"measurement": "inhibition at 10 µM", "setting": "[1]; [6]", "value": 104, "unit": "%"}, {"measurement": "inhibition at 10 µM", "setting": "[1]; [7]", "value": 100, "unit": "%"}]}
{"smiles": "CC(C)c1cc2c(c(C(C)(C)C)c1O)CC(C)(C)O2", "note": "[Example 20-(2), 4-t-Butyl-5-hydroxy-2,2-dimethyl-6-isopropyl-2,3-dihydrobenzofuran]", "values": [{"measurement": "inhibition at 0.1 µM", "setting": "[1]; [2]", "value": 95.3, "unit": "%"}, {"measurement": "inhibition at 0.1 µM", "setting": "[1]; [3]", "value": 61.9, "unit": "%"}, {"measurement": "inhibition at 1 µM", "setting": "[1]; [4]", "value": 98.1, "unit": "%"}, {"measurement": "inhibition at 1 µM", "setting": "[1]; [5]", "value": 97.8, "unit": "%"}, {"measurement": "inhibition at 10 µM", "setting": "[1]; [6]", "value": 97.3, "unit": "%"}, {"measurement": "inhibition at 10 µM", "setting": "[1]; [7]", "value": 99.1, "unit": "%"}]}
